Assay [1] concerns the target T1, GSK-3β (Homo sapiens, UniProt P49841). The assay can be described thus: LANCE Ultra TR-FRET GSK-3β kinase inhibition assay (ULight-GS phosphorylation). The settings on record: 1 µM ATP, 50 nM ULight-GS; for IC50: dose-response 30 nM to 200 μM. The class given is biochemical. How it is done: To assess if the identified GSK-3β binders were also able to affect kinase activity, the inhibitory activity of the four identified hit compounds was tested at four concentrations (1-5-50-100 μM) using the LANCE® Ultra (Perkin Elmer, Waltham, MA, USA) time-resolved fluorescence resonance energy transfer (TR-FRET) assay. The assay measures the ability of GSK-3β to phosphorylate a specific substrate, human Muscle Glycogen Synthase (ULight-GS ([…]/pSer657)), in the presence and absence of the identified ligands. […] Specifically, IC50 values were (14.81 ± 0.55) μM and (15.25 ± 1.34) μ[…] and G12, respectively (Figure 5). The GSK-3β kinase assay was run in 384 well microplates (OptiPlate^TM-384, White, Perkin Elmer) with a total reaction volume of 20 μL. The inhibitory potency against human recombinant GSK-3β was evaluated using the LANCE® Ultra (Perkin Elmer) time-resolved fluorescence resonance energy transfer (TR-FRET) by measuring the phosphorylation of the specific substrate, human Muscle Glycogen Synthase (ULight-GS ([…]/pSer657)), according to the manufacturer's instructions. […] The reaction was initiated by adding 50 nM of the substrate ULight-[…] and 1 μM ATP. The mixture was incubated for 1 h at 23 °C. Afterward, the reaction was stopped by adding 8 mM EDTA. After 5 min, the anti-phospho-GS antibody labeled with europium chelate was added. 1 h later, the kinase reaction was monitored by irradiation at 320 nm, and the fluorescence was measured at 615 and 665 nm, using EnVision 2014 Multilabel Reader (PerkinElmer). The calculated signal ratio at 665/615 nm was proportional to the extent of ULight-GS phosphorylation. The compounds were screened at four concentrations (1-5-50-100 μM). For selected compounds, dose-response curves, ranging from 30 nM up to 200 μM, were performed. Dose-response curves were run in three independent experiments, each performed in three technical replicates. IC50 values (concentrations causing half-maximal response or enzyme inhibition) were determined by non-linear regression analysis of the Log [concentration]/response curves generated with mean replicate values using a four parameter Hill equation curve fitting with GraphPad Prism 8 (GraphPad Software Inc., San Diego, CA, USA).

Assay [2] deals with T1, GSK-3β. The assay can be described thus: MicroScale Thermophoresis (MST) binding to fluorescently labeled GSK-3β. More on the design: made in house; host or cells: Sf9 cells. As to conditions: preincubation with 3 mM AMP-PNP; data not shown. How it is done: MicroScale Thermophoresis (MST) experiments were conducted in triplicate on a Monolith NT.115 Pico system (NanoTemper Technologies, Munich, Germany).
The MST technique was used both for hit binding and for affinity (kd) determination.
GSK-3β was labeled with the His-tag RED-tris-NTA label 2nd generation (Nanotemper Technologies) following Nanotemper technology protocol. The 100 nM stock labeled protein solution was used at 20 nM concentration to roughly start from 7000 fluorescence counts in each screening experiment.
GSK-3β was labelled also using RED-NHS ammine dye (Nanotemper Technologies) following the manufacturer’s protocol. The obtained ammine-labeled protein was used at 20 nM concentration to roughly start the experiments from 6000 fluorescence counts.
Binding tests were performed on eight capillaries with a constant concentration of the labeled protein (20 nM), to detect the effect induced by the compounds on the fluorescence signal (in the presence or absence of 3 mM AMP-PNP). Protein in assay buffer in the presence of 5% DMSO was the negative control.
Assay buffer: Phosphate buffer 0.1 M pH 7.2, 5 mM MgCl2, 0.001% Tween80, 0.1% PEG8000. Experiments were performed in triplicates. Data elaboration and plots were performed using MO.Control Nanotemper software.

SMILES strings stand for the structures.

T1 sequence (P49841 whole entry): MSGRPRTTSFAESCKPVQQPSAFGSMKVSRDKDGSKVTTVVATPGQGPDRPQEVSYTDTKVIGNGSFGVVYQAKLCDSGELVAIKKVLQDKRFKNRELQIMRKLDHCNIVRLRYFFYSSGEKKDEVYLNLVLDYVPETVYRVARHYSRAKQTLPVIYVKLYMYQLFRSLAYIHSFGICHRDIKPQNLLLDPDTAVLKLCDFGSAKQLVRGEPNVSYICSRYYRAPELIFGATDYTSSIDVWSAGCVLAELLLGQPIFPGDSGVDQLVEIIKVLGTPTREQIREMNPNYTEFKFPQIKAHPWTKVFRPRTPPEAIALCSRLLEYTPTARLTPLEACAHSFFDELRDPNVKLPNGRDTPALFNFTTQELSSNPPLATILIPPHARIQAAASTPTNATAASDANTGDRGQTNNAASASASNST

On to `O=C(Nc1ccccn1)C1CCN(C(=O)COc2ccccc2F)C1` (stereo not shown) [ARN1484], for which, on GSK-3β [1], the midpoint of inhibition, the IC50, lay at 38.1 µM.

Take `CN(C)S(=O)(=O)N1CC(c2nc(N)ncc2-c2ccc(F)cc2)C1` [ARN9133]: on GSK-3β [1], the IC50 was determined as 27.2 µM.

In turn, `O=C(NCCn1ncc(-c2ccncc2)c1C1CC1)c1ccccc1F` [B3] returned an inhibition at 1 µM at GSK-3β [1] (1 μM compound, mean ± SD) of 2.5 ± 0.9%. Besides, the inhibition at 5 µM against GSK-3β [1] (5 μM compound, mean ± SD) worked out at 4.9 ± 1.5%. Besides, the inhibition at 50 µM against GSK-3β [1] (50 μM compound, mean ± SD) amounted to 27.1 ± 4.9%. Also, testing at 100 µM against GSK-3β [1] (100 μM compound, mean ± SD) gave an inhibition of 46.6 ± 6%. Besides, the “MST binding check, displacement assay” value on GSK-3β [2] is reported as “maintained their ability to bind GSK-3β”.
